Data reported in the NIST ThermoML archive (doi:10.1021/acs.jced.8b00936).
Numbers after ± are expanded uncertainties.

Details: 100 kPa, Liquid, Pycnometric method

mass density (273.15 K): 859.9 ± 4.9 kg/m3
mass density (283.15 K): 849.3 ± 4.8 kg/m3
Structure (SMILES): CCCCOCCOCCCC [5,8-dioxadodecane]
